Test results published in ChEMBL document CHEMBL1687866, “Efficient microwave-assisted synthesis of novel 3-aminohexahydrocoumarin derivatives and evaluation on their cytotoxicity” (Eur J Med Chem, 2011).
In brackets after ≈: the same amount, converted by molar mass.

How the values were obtained:
[1] = Cytotoxicity against human SW1116 cells assessed as cell viability rate at 10 ug/ml after 24 hrs by MTT assay; format: functional, SW 1116
[2] = Cytotoxicity against human SW1116 cells assessed as cell viability rate at 0.1 ug/ml after 24 hrs by MTT assay; format: functional, SW 1116
[3] = Cytotoxicity against human SW1116 cells assessed as cell viability rate at 1 ug/ml after 24 hrs by MTT assay; format: functional, SW 1116
[4] = system: SGC-7901; assay: Cytotoxicity against human SGC7901 cells after 20 hrs by MTT assay; format: functional, cell-based; conditions: SGC-7901, 20 h

## CC1(C)CC(=O)C2=C(C1)OC(=O)C(NC(=O)c1ccccc1)C2c1ccco1 (stereo not drawn)
[1]
  Cell viability: 42.02%
[2]
  Cell viability: 79.26%
[3]
  Cell viability: 67.67%
[4]
  IC50: 0.259 µg/mL (≈ 0.683 µM)

## CC1(C)CC(=O)C2=C(C1)OC(=O)C(NC(=O)c1ccccc1)C2c1ccc(F)cc1 (mixture of isomers)
[1]
  Cell viability: 59.03%
[2]
  Cell viability: 95.76%
[3]
  Cell viability: 91.39%
[4]
  IC50: 0.436 µg/mL

## CC1(C)CC(=O)C2=C(C1)OC(=O)C(NC(=O)c1ccccc1)C2c1ccc(Cl)cc1 (mixture of isomers)
[1]
  Cell viability: 64.34%
[2]
  Cell viability: 77.19%
[3]
  Cell viability: 77.81%
[4]
  IC50: > 100 µg/mL

## CC1(C)CC(=O)C2=C(C1)OC(=O)C(NC(=O)c1ccccc1)C2c1ccc([N+](=O)[O-])cc1 (mixture of isomers)
[1]
  Cell viability: 46.6%
[2]
  Cell viability: 107.38%
[3]
  Cell viability: 73.4%
[4]
  IC50: 0.905 µg/mL

## CC1(C)CC(=O)C2=C(C1)OC(=O)C(NC(=O)c1ccccc1)C2c1ccccc1Cl (mixture of isomers)
[1]
  Cell viability: 85.08%
[2]
  Cell viability: 114.23%
[3]
  Cell viability: 97.92%
[4]
  IC50: 0.239 µg/mL

## CC1(C)CC(=O)C2=C(C1)OC(=O)C(NC(=O)c1ccccc1)C2c1ccccc1Br (mixture of isomers)
[1]
  Cell viability: 55.74%
[2]
  Cell viability: 102.11%
[3]
  Cell viability: 99.3%
[4]
  IC50: 5.13 µg/mL

## Cc1ccc(C2C3=C(CC(C)(C)CC3=O)OC(=O)C2NC(=O)c2ccccc2)cc1 (mixture of isomers)
[1]
  Cell viability: 82.67%
[2]
  Cell viability: 77.88%
[3]
  Cell viability: 83.63%
[4]
  IC50: 2.69 µg/mL

## COc1cc(C2C3=C(CC(C)(C)CC3=O)OC(=O)C2NC(=O)c2ccccc2)cc(OC)c1OC (mixture of isomers)
[1]
  Cell viability: 92.18%
[2]
  Cell viability: 91.48%
[3]
  Cell viability: 81.59%
[4]
  IC50: 0.158 µg/mL

## CC1(C)CC(=O)C2=C(C1)OC(=O)C(NC(=O)c1ccccc1)C2c1cccs1 (mixture of isomers)
[1]
  Cell viability: 50.51%
[2]
  Cell viability: 94.51%
[3]
  Cell viability: 104.31%
[4]
  IC50: 0.612 µg/mL

## O=C1CCCC2=C1C(c1ccc(F)cc1)C(NC(=O)c1ccccc1)C(=O)O2 (mixture of isomers)
[1]
  Cell viability: 83.22%
[2]
  Cell viability: 90.86%
[3]
  Cell viability: 91.07%
[4]
  IC50: 0.812 µg/mL

## O=C1CCCC2=C1C(c1ccc(Cl)cc1)C(NC(=O)c1ccccc1)C(=O)O2 (mixture of isomers)
[1]
  Cell viability: 69.78%
[2]
  Cell viability: 91.48%
[3]
  Cell viability: 89.77%
[4]
  IC50: > 100 µg/mL

## O=C1CCCC2=C1C(c1ccc([N+](=O)[O-])cc1)C(NC(=O)c1ccccc1)C(=O)O2 (mixture of isomers)
[1]
  Cell viability: 55.22%
[2]
  Cell viability: 73.6%
[3]
  Cell viability: 100.6%
[4]
  IC50: 1.09 µg/mL

## O=C1CCCC2=C1C(c1ccccc1Cl)C(NC(=O)c1ccccc1)C(=O)O2 (mixture of isomers)
[1]
  Cell viability: 87.56%
[2]
  Cell viability: 109.5%
[3]
  Cell viability: 102.59%
[4]
  IC50: 0.226 µg/mL

## O=C1CCCC2=C1C(c1ccccc1Br)C(NC(=O)c1ccccc1)C(=O)O2 (mixture of isomers)
[1]
  Cell viability: 99.27%
[2]
  Cell viability: 50.51%
[3]
  Cell viability: 92.19%
[4]
  IC50: 3.94 µg/mL

## Cc1ccc(C2C3=C(CCCC3=O)OC(=O)C2NC(=O)c2ccccc2)cc1 (mixture of isomers)
[1]
  Cell viability: 107.87%
[2]
  Cell viability: 113.97%
[3]
  Cell viability: 106.66%
[4]
  IC50: 1.86 µg/mL

## COc1cc(C2C3=C(CCCC3=O)OC(=O)C2NC(=O)c2ccccc2)cc(OC)c1OC (mixture of isomers)
[1]
  Cell viability: 94.07%
[2]
  Cell viability: 110.34%
[3]
  Cell viability: 109.73%
[4]
  IC50: 1.21 µg/mL

## O=C1CCCC2=C1C(c1cccs1)C(NC(=O)c1ccccc1)C(=O)O2 (mixture of isomers)
[1]
  Cell viability: 69.73%
[2]
  Cell viability: 79.97%
[3]
  Cell viability: 81.65%
[4]
  IC50: 0.701 µg/mL

## O=C1CCCC2=C1C(c1ccco1)C(NC(=O)c1ccccc1)C(=O)O2 (mixture of isomers)
[1]
  Cell viability: 74.22%
[2]
  Cell viability: 95.53%
[3]
  Cell viability: 97.92%
[4]
  IC50: 1.3 µg/mL

## COc1cccc2c1C(=O)c1c(O)c3c(c(O)c1C2=O)C[C@@](O)(C(=O)CO)C[C@@H]3O[C@H]1C[C@H](N)[C@H](O)[C@H](C)O1.Cl [DOXORUBICIN HYDROCHLORIDE]
[1]
  Cell viability: 67.34%
